Data from patent publication US8324282B2, “Alkylating agent combinations in the treatment of cancer” (Case Western Reserve University, priority 1999, dated 2012).

How the values were obtained:
SW480 cells [1] = experiment: Colony survival assay, SW480; type: cell-based, human
Excerpt: (§1) Chemicals and Reagents. BG was generously provided by Dr. Robert Moschel (Frederick Cancer Research and Development Center, National Cancer Institute). Stock solution was made in dimethylsulfoxide. TMZ and BCNU were obtained from the Drug Synthesis and Chemistry Branch, Drug Therapeutic Program, National Cancer Center Institute. PD128763 was a gift from Park-Davis Pharmaceutical Division. 6-AN, 3-AB, MX and methylmethane sulfonate (MMS) were purchased from Sigma (ST. Louis, Mo.). Stock solutions of PD128763, 3-AB and 6-AN were prepared by dissolving in dimethylsulfoxide and added to cell culture at a final concentration of <1% DMSO, when cells were treated with these compounds. MX was dissolved in sterilized water (pH 7.0). All stock solutions were kept at −20° C. BCNU was prepared fresh in 0.5 ml of 100% ethanol, diluted in PBS, and used with in 10 min. Colony Survival Assay. SW480 cells were obtained from the ATCC. HCT116 cells were obtained from R. Boland, University of Michigan Medical Center. All cell lines were cultured in appropriate growth medium.
(§2) Cells (2000/dish) were plated, adhered for 18 hrs and treated with TMZ or
(§3) MMS plus or minus modifiers such as […], MX, 6-AN, 3-AB or PD128763, according to experimental protocol. After treatment, cells were washed and fresh medium was replaced. The cells were grown for a further 7 days prior to staining with methylene blue for determination of colonies containing more than 50 cells. Comparisons of drug induced cytotoxicity consisted of a calculation of the dose modification factor (DMF), defined as the ratio of the IC50 of either TMZ or MMS in the absence to that in the presence of indicted modifier(s), i.e., DMF═IC50 for TMZ alone/IC50 for TMZ plus modifier(s).

[2] = Acute toxicity of MX (i.p.); settings: mice, single injection
Description: Three mice per group were injected (i.p.) with MX at doses of 1, 2, 4, 6, 10 and 15 mg/kg for the test of acute toxicity.

SW480 cells [3] = experiment: Flow cytometry cell cycle distribution and apoptosis, SW480
Description: Median Effect Analysis (MEA). MEA was used to determine the dose-response interactions between TMZ and either MX or PD 128763. Drugs were combined at the ratio of the IC50 values for either TMZ and MX or TMZ and PD 128763 as determined by survival/concentration curves. The combination was compared to the cytotoxicity of each drug alone in every experiment. The combination index (CI) was determined from colony-forming assays at increasing levels of cell killing, using analysis of multiple drug interaction program (Biosoft, Cambridge, United Kingdom) developed based on method of Chou and Talalay (Chou and Talalay “Quantitative analysis of dose-effect relationship: the combined effects of multiple drugs on enzyme inhibitors” In: G. Weber (ed.) Advances in Enzyme Regulation, pp. 27-55, New York: Pergamon Press, 1983). […] DNA fluorescence of PI-stained cells was measured with an Elite ESP flow cytometer/cell sorter (Coulter, Miami, Fla.). Cell cycle distribution was analyzed with Modfit 5.2 program (Verity software, Topsham, Mass.) at least 10,000 cells per data point. […] The tumors were measured with calipers using the National Cancer Institute formula: V=L(mm)×I^2 (mm)/2 where L is the largest diameter and I is the smallest diameter of the tumor. […] The relative tumor volume (V/V0) was calculated by dividing the measured tumor volume (V) by the initial tumor volume (V0) at day 0. […]

[4] = test system: AP sites in calf thymus DNA; experiment: Competitive AP site binding assayed by Aldehyde Reactive Probe (ARP); settings: MX 5-20 mM
Excerpt: 1. Analysis of chemical—modified AP Sites assayed by Aldehyde Reactive Probe (ARP). This is a competitive assay to measure the reactivity with AP site between ARP reagent (Dojindo Molecular Technologies Inc., Gaithersburg, Md.) and the screening compounds. ARP and MX have a similar reactivity with AP sites. They react specifically with an aldehyde group that is open ring form of the AP sites. Thus this assay will allow identification of compounds with potential to block AP site repair based on the binding affinity and efficiency to AP sites of screening compounds compared to ARP and MX.
a. AP site standard preparation: AP sites were produced in a calf thymus DNA by heat/acid-buffer solution. Intact calf thymus DNA was added to sodium citrate buffer (10 mM sodium citrate containing 10 mM NaH2PO4 and 10 mM NaCl, pH 5.0) and held at 70° C. for 30 min. The reaction was stopped by chilling rapidly on ice, and the DNA was then precipitated with cold ethanol, washed with 70% ethanol, dried, and resuspended in sterilized distilled water.
b. […] After NC membrane was rinsed with washing buffer containing NaCl (0.26 M), EDTA (1 mM), Tris-HCI (20 mM), and Tween 20 (1%), ARP-AP sites are visualized with ECL reagents (Amersham Corp.) (FIG. 22A) and quantitated by scanning densitometer (FIG. 22B).

HCT116 xenograft = HCT116 xenograft tumor response in nude mice; type: in vivo; settings: HCT116 xenograft; Table 2 doses: TMZ 120, MX 2, MX+TMZ 2/120 mg/kg; daily for 5 days
HCT116 cells = experiment: Colony survival assay, HCT116; type: cell-based, human; settings: HCT116
Excerpt: as §1, §2, §3

DEtp cell line = experiment: DEtp subline of DLD1; type: cell-based; settings: DEtp cell line
Excerpt: We also investigated whether TMZ and MX-induced MX-AP sites may also act as poisons of topoisomerase II α (topo II), producing dual lethal targets. To analyze the effect of MX-AP site on topo II-mediated DNA cleavage, a position-specific MX-AP site was generated on topo II cleavage sites using oligonuleotides for cleavage assay. […] We also found prolonged induction of topo II and remarkable increase in DNA double strand breaks in cells treated with TMZ and MX compared to TMZ alone. Similar results were also observed in cells treated with etoposide but not with N-methyl-maleimide (a catalytic inhibitor of topo II and also an antagonizer of etoposide). Moreover, the potentiation of TMZ by MX was decreased in DEtp cell line that was a subline derived from DLD1 and 5-fold more resistant to etoposide compared to the parental cell line.

[5] = test system: human bone marrow cells (CD34+ cells); experiment: Colony forming assay, human bone marrow / CD34+ cells; type: cell-based; settings: human CD34+ cells; colony forming assay
Excerpt: We observed less myelosuppression and less weight loss using TMZ and MX than using TMZ and BG. […] To test this hypothesis, we conducted in vitro experiments comparing the sensitivity to BG+TMZ and MX+TMZ in colon cancer cell lines with that of mouse bone marrow and human bone marrow cells. […] MX increased TMZ killing by 4 fold in SW480 cells. […] Topoisomerase (Topo) I and Topo II recognize spontaneous AP sites and form stable cleavable complexes. We hypothesized that AP sites formed during repair of TMZ-induced N7 mG and N3 mA adducts would also be recognized by Topo I and Topo II. However since Base Excision Repair [BER] is normally quite efficient, we further hypothesized that the impact of Topo I and Topo II would be most important after MX inhibition of BER; increased unrepaired MX adducted AP sites should increase Topo mediated strand breaks and apoptosis. Therefore, potentiation of TMZ cytotoxicity by MX would be dependent on Topo I and II. […] Lack of Topo I and II results in less cleavable complex formation, fewer double strand DNA breaks, and less apoptosis. We predict a better therapeutic index for the combination of MX/TMZ than observed with BG/TMZ because of the relative overexpression of topoisomerases I and II in malignant cells compared to marrow progenitors.

## CON [MX, methoxyamine]
SW480 cells [1]; SW480, 6 mM MX
  cytotoxicity of MX alone: nontoxic
SW480 cells [1]; SW480, MMS 0-3 mM plus 6 mM MX and/or BG vs MMS alone
  DMF / potentiation of MMS cytotoxicity: 2.0 fold
SW480 cells [1]; SW480, modifier(s) plus TMZ vs TMZ alone
  DMF (IC50 for TMZ alone/IC50 for TMZ plus modifier(s)): 2.4 fold
SW480 cells [1]; SW480, without BG
  effect of modifier on BCNU cytotoxicity: No enhancement
SW480 cells [1]; SW480 tumor cells, Example 13
  potentiation of TMZ cytotoxicity: 4 fold
[2]
  lethal dose: 15 mg/kg
SW480 cells [3]
  effect of modifier alone on cell cycle distribution: did not affect
[4]
  AP binding sites blocked (relative reduction of ARP-detected AP sites by densitometry): 38-80%
HCT116 xenograft
  Tumor growth delays: 2.2 ± 0.4 days
HCT116 cells; 6 mM MX
  cytotoxicity of MX alone: nontoxic
HCT116 cells; MMS 0-3 mM plus 6 mM MX 1 hr vs MMS alone
  DMF of MMS: 2.3
HCT116 cells; modifier plus TMZ vs TMZ alone
  DMF (IC50 for TMZ alone/IC50 for TMZ plus modifier): 3.1 fold
HCT116 cells; without BG
  effect of modifier on BCNU cytotoxicity: No enhancement
DEtp cell line
  potentiation of TMZ by MX: decreased
[5]
  potentiation of TMZ cytotoxicity: no potentiation
